Reference: PubChem BioAssay AID1259407 (Chemical Carcinogenesis Research Information System (CCRIS), 2018)
Calls of active or inactive are those of the source. How the calls were made is not given here.

System: CCRIS mutagenicity, Ames/micronucleus/aberration tests
Test: CCRIS mutagenicity studies
[1] = Test System: AMES SALMONELLA TYPHIMURIUM, Strain/Indicator: TA98, Metabolic Activation: NONE, Method: PREINCUBATION
[2] = Test System: AMES SALMONELLA TYPHIMURIUM, Strain/Indicator: TA100, Metabolic Activation: NONE, Method: PREINCUBATION
[3] = Test System: AMES SALMONELLA TYPHIMURIUM, Strain/Indicator: TA98, Metabolic Activation: NONE, Method: STANDARD PLATE
[4] = Test System: AMES SALMONELLA TYPHIMURIUM, Strain/Indicator: TA100, Metabolic Activation: NONE, Method: STANDARD PLATE
[5] = Test System: AMES SALMONELLA TYPHIMURIUM, Strain/Indicator: TA98, Metabolic Activation: RAT, LIVER, S-9, AROCLOR 1254, Method: STANDARD PLATE
[6] = Test System: AMES SALMONELLA TYPHIMURIUM, Strain/Indicator: TA100, Metabolic Activation: RAT, LIVER, S-9, AROCLOR 1254, Method: STANDARD PLATE
[7] = Test System: AMES SALMONELLA TYPHIMURIUM, Strain/Indicator: TA1535, Metabolic Activation: NONE, Method: STANDARD PLATE
[8] = Test System: AMES SALMONELLA TYPHIMURIUM, Strain/Indicator: TA1535, Metabolic Activation: RAT, LIVER, S-9, AROCLOR 1254, Method: STANDARD PLATE
[9] = Test System: AMES SALMONELLA TYPHIMURIUM, Strain/Indicator: TA1537, Metabolic Activation: NONE, Method: STANDARD PLATE
[10] = Test System: AMES SALMONELLA TYPHIMURIUM, Strain/Indicator: TA1537, Metabolic Activation: RAT, LIVER, S-9, AROCLOR 1254, Method: STANDARD PLATE
[11] = Test System: CHINESE HAMSTER V-79, Strain/Indicator: V-79 (HGPRT)/6-THIOGUANINE, Metabolic Activation: NONE

`Cc1cccn2c1nc1ccc(NO)nc12` was tested, and the mutagenic call [1] was “active; positive”, the mutagenic call (Test System: AMES SALMONELLA TYPHIMURIUM, Strain/Indicator: YG1020, Metabolic Activation: NONE, Method: PREINCUBATION) was “active; positive” and the mutagenic call (Test System: AMES SALMONELLA TYPHIMURIUM, Strain/Indicator: YG1021, Metabolic Activation: NONE, Method: PREINCUBATION) was “active; positive”. For the same molecule, the mutagenic call (Test System: AMES SALMONELLA TYPHIMURIUM, Strain/Indicator: YG1024, Metabolic Activation: NONE, Method: PREINCUBATION) was “active; positive”, the mutagenic call (Test System: AMES SALMONELLA TYPHIMURIUM, Strain/Indicator: YG1025, Metabolic Activation: NONE, Method: PREINCUBATION) was “inactive; negative” and the mutagenic call (Test System: AMES SALMONELLA TYPHIMURIUM, Strain/Indicator: YG1029, Metabolic Activation: NONE, Method: PREINCUBATION) was “active; positive”. The mutagenic call (Test System: AMES SALMONELLA TYPHIMURIUM, Strain/Indicator: YG1041, Metabolic Activation: NONE, Method: PREINCUBATION) was “active; positive”.

`COc1cc(OC)c(OC)cc1C=O` was tested, and the mutagenic call (Test System: AMES SALMONELLA TYPHIMURIUM, Strain/Indicator: TA98, Metabolic Activation: HAMSTER, LIVER, S-9, AROCLOR 1254 (10%), Method: PREINCUBATION) was “inactive; negative”, the mutagenic call [1] was “inactive; negative” and the mutagenic call (Test System: AMES SALMONELLA TYPHIMURIUM, Strain/Indicator: TA98, Metabolic Activation: RAT, LIVER, S-9, AROCLOR 1254 (10%), Method: PREINCUBATION) was “inactive; negative”. For the same molecule, the mutagenic call (Test System: AMES SALMONELLA TYPHIMURIUM, Strain/Indicator: TA100, Metabolic Activation: HAMSTER, LIVER, S-9, AROCLOR 1254 (10%), Method: PREINCUBATION) was “inactive; negative”, the mutagenic call [2] was “inactive; negative” and the mutagenic call (Test System: AMES SALMONELLA TYPHIMURIUM, Strain/Indicator: TA100, Metabolic Activation: RAT LIVER S-9, AROCLOR 1254, Method: PREINCUBATION) was “inactive; negative”. For the same molecule, the mutagenic call (Test System: AMES SALMONELLA TYPHIMURIUM, Strain/Indicator: TA100, Metabolic Activation: RAT, LIVER, S-9, AROCLOR 1254 (10%), Method: PREINCUBATION) was “inactive; negative”, the mutagenic call (Test System: AMES SALMONELLA TYPHIMURIUM, Strain/Indicator: TA102, Metabolic Activation: NONE, Method: PREINCUBATION) was “inactive; negative” and the mutagenic call (Test System: AMES SALMONELLA TYPHIMURIUM, Strain/Indicator: TA102, Metabolic Activation: RAT LIVER S-9, AROCLOR 1254, Method: PREINCUBATION) was “inactive; negative”. The mutagenic call (Test System: AMES SALMONELLA TYPHIMURIUM, Strain/Indicator: TA104, Metabolic Activation: NONE, Method: PREINCUBATION) was “inactive; negative”, the mutagenic call (Test System: AMES SALMONELLA TYPHIMURIUM, Strain/Indicator: TA104, Metabolic Activation: RAT LIVER S-9, AROCLOR 1254, Method: PREINCUBATION) was “inactive; negative” and the mutagenic call (Test System: AMES SALMONELLA TYPHIMURIUM, Strain/Indicator: TA1535, Metabolic Activation: HAMSTER, LIVER, S-9, AROCLOR 1254 (10%), Method: PREINCUBATION) was “inactive; negative”. For the same molecule, the mutagenic call (Test System: AMES SALMONELLA TYPHIMURIUM, Strain/Indicator: TA1535, Metabolic Activation: NONE, Method: PREINCUBATION) was “inactive; negative”, the mutagenic call (Test System: AMES SALMONELLA TYPHIMURIUM, Strain/Indicator: TA1535, Metabolic Activation: RAT, LIVER, S-9, AROCLOR 1254 (10%), Method: PREINCUBATION) was “inactive; negative” and the mutagenic call (Test System: AMES SALMONELLA TYPHIMURIUM, Strain/Indicator: TA1537, Metabolic Activation: HAMSTER, LIVER, S-9, AROCLOR 1254 (10%), Method: PREINCUBATION) was “inactive; negative”. For the same molecule, the mutagenic call (Test System: AMES SALMONELLA TYPHIMURIUM, Strain/Indicator: TA1537, Metabolic Activation: NONE, Method: PREINCUBATION) was “inactive; negative”, the mutagenic call (Test System: AMES SALMONELLA TYPHIMURIUM, Strain/Indicator: TA1537, Metabolic Activation: RAT, LIVER, S-9, AROCLOR 1254 (10%), Method: PREINCUBATION) was “inactive; negative” and the mutagenic call (Test System: MOUSE LYMPHOMA, Strain/Indicator: L5178Y (TK+/TK-), Metabolic Activation: RAT, LIVER, S-9, AROCLOR 1254, Method: SUSPENSION/PLATE) was “active; positive. reevaluation of results: equivocal”. For the same molecule, the mutagenic call (Test System: Mouse lymphoma, Strain/Indicator: L5178Y (tk+/tk-), Metabolic Activation: None, Method: Suspension/plate) was “inactive; negative”.

In the case of `Cc1cccc2cc3c(cc12)-c1cccc2cccc-3c12`, the mutagenic call (Test System: AMES SALMONELLA TYPHIMURIUM, Strain/Indicator: TA100, Metabolic Activation: RAT, LIVER, S-9, AROCLOR 1254) was “active; positive”.

In the case of `O=[N+]([O-])c1cccc(CO/N=C/c2nc3cc([N+](=O)[O-])ccc3n2Cc2ccc(Cl)cc2)c1`, the mutagenic call [3] was “inactive; negative”, the mutagenic call (Test System: AMES SALMONELLA TYPHIMURIUM, Strain/Indicator: TA98, Metabolic Activation: RAT, LIVER, S-9, PHENOBARBITAL AND BETA-NAPHTHOFLAVONE, Method: STANDARD PLATE) was “inactive; negative” and the mutagenic call [4] was “inactive; negative”. For the same molecule, the mutagenic call (Test System: AMES SALMONELLA TYPHIMURIUM, Strain/Indicator: TA100, Metabolic Activation: RAT, LIVER, S-9, PHENOBARBITAL AND BETA-NAPHTHOFLAVONE, Method: STANDARD PLATE) was “inactive; negative”.

For `O=[N+]([O-])c1ccc2cc(O)c3cccc4ccc1c2c43`, the mutagenic call [3] was “active; positive” and the mutagenic call [5] was “active; positive”.

For `O=CCO`, the mutagenic call [2] was “inactive; negative”.

With `CCN(CC)c1ccc(N=Nc2ccc([N+](=O)[O-])cc2)cc1` the mutagenic call [3] was “inactive; negative”, the mutagenic call [5] was “active; positive” and the mutagenic call [4] was “inactive; negative”. For the same molecule, the mutagenic call [6] was “inactive; negative”, the mutagenic call [7] was “inactive; negative” and the mutagenic call [8] was “inactive; negative”. The mutagenic call [9] was “inactive; negative”, the mutagenic call [10] was “inactive; negative” and the mutagenic call [11] was “inactive; negative”. The mutagenic call (Test System: CHINESE HAMSTER V-79, Strain/Indicator: V-79 (HGPRT)/6-THIOGUANINE, Metabolic Activation: RAT, LIVER, S-9, KANECLOR 400) was “inactive; negative” and the mutagenic call (Test System: UDS RAT HEPATOCYTES, Strain/Indicator: THY INCORP, Metabolic Activation: NONE, Method: AUTORADIOGRAPHY) was “inactive; negative”.

In the case of `Cn1c(N)nc2cc(Cl)ccc21`, the mutagenic call (Test System: AMES SALMONELLA TYPHIMURIUM, Strain/Indicator: TA98, Metabolic Activation: RAT, LIVER, S-9, AROCLOR 1254, Method: PREINCUBATION) was “active; positive” and the mutagenic call (Test System: AMES SALMONELLA TYPHIMURIUM, Strain/Indicator: TA100, Metabolic Activation: RAT, LIVER, S-9, AROCLOR 1254, Method: PREINCUBATION) was “active; positive”.

With `[N-]=[N+]=NCC[C@H](N)C(=O)O` the mutagenic call (Test System: AMES SALMONELLA TYPHIMURIUM, Strain/Indicator: TA1530, Metabolic Activation: NONE, Method: STANDARD PLATE) was “active; positive”.

In the case of `C[C@H](CCC(=O)O)[C@H]1CC[C@H]2[C@@H]3[C@@H](O)C[C@@H]4C[C@H](O)CC[C@]4(C)[C@H]3CC[C@]12C`, the mutagenic call (Test System: AMES SALMONELLA TYPHIMURIUM, Strain/Indicator: TA98, Metabolic Activation: NONE, Method: FLUCTUATION TEST) was “active; positive”, the mutagenic call (Test System: AMES SALMONELLA TYPHIMURIUM, Strain/Indicator: TA100, Metabolic Activation: NONE, Method: FLUCTUATION TEST) was “inactive; negative” and the mutagenic call [4] was “inactive; negative”. The mutagenic call [6] was “inactive; negative”.

In the case of `CN(C)CC/C=C1\c2ccccc2COc2ccccc21`, the mutagenic call [3] was “inactive; negative”, the mutagenic call [5] was “inactive; negative” and the mutagenic call [4] was “inactive; negative”. For the same molecule, the mutagenic call [6] was “inactive; negative”, the mutagenic call [7] was “inactive; negative” and the mutagenic call [8] was “inactive; negative”. For the same molecule, the mutagenic call [9] was “inactive; negative” and the mutagenic call [10] was “inactive; negative”.

`CCN(CC)CCCNc1ccc2nc(C)n3c4ccc(O)cc4c(=O)c1c23` was tested, and the mutagenic call [11] was “active; positive”.
